# Test results published in patent publication US10512654B2, “Pharmaceutical composition including dutasteride and capsule formulation comprising the same” (YUYU PHARMA, INC., priority 2015, dated 2019).
# How the values were obtained:
# Assay type in all cases: physicochemical
# [1] = Test I on stability of dutasteride depending on oil type (Test Example 2)
# Experimental: As samples used in the comparison test, a sample dissolving 1.0 mg of dutasteride in 10.0 mg of propylene glycol monolaurate and stored in a transparent vial, and a sample dissolving 1.0 mg of dutasteride in 10.0 mg of caprylic/capric acid mono-di-glyceride and stored in a transparent vial were used.
# [2] = Solubility of dutasteride in oil (Test Example 1); settings: for solubility at 24 h: oil or lipid, thermodynamic from solid
# Experimental: In order to measure the solubility of dutasteride in oil, the solubility of dutasteride in soybean oil, castor oil, propylene glycol dicaprylate, propylene glycol dicaprate and propylene glycol monolaurate was measured. In a 10 mL vial, a magnetic bar was placed. After 3 mL of the oil was added thereto, approximately 100 mg of dutasteride was added thereto while stirring under a room temperature (25° C.) condition, and the resultant mixture was stirred with 500 rpm or higher. After stirring for 24 hours, 1 mL of the resultant mixture was taken and separated using a centrifuge, and only the supernatant was taken to quantify the amount of dutasteride dissolved in the oil using liquid chromatography.
# [3] = Stability of dutasteride in mixture of oil and surfactant (Test Example 3); settings: storage condition not given
# Experimental: A stability test on the pharmaceutical composition of the comparative example dissolving 0.5 mg of dutasteride in a mixture of 95 mg of propylene glycol monocaprylate and 5 mg of polyoxyl 35 castor oil and stored in a transparent vial, and the pharmaceutical composition of the example including dutasteride, propylene glycol monolaurate and polyoxyl 35 castor oil was carried out by identifying the generation of degradation products under an accelerated condition (40° C., 75% RH) and a stress condition (50° C. 95% RH). As shown in the following Table 5, it was seen that the mixture of propylene glycol monolaurate and a surfactant secured the stability of dutasteride unlike mixtures of surfactant with other oils such as propylene glycol monocaprylate.
# [4] = in Propylene Glycol Monocaprylate + Polyoxyl 35 Castor Oil
# [5] = in Propylene Glycol Monolaurate + Polyoxyl 35 Castor Oil
smiles,measurement,setting,value
"C[C@]12C=CC(=O)N[C@@H]1CC[C@@H]1[C@@H]2CC[C@]2(C)[C@@H](C(=O)Nc3cc(C(F)(F)F)ccc3C(F)(F)F)CC[C@@H]12 [Dutasteride, 17β-N-(2,5-bis(trifluoromethyl))phenylcarbamoyl-4-aza-5α-androst-1-en-3-one]",Amount of Degradation Products (%) After 4 Weeks,"[1]; in Caprylic/Capric Acid Mono-Di-Glyceride, Accelerated Condition (40° C., 75% RH)",0.94%
same,Amount of Degradation Products (%) After 4 Weeks,"[1]; in Caprylic/Capric Acid Mono-Di-Glyceride, Stress Condition (50° C., 95% RH)",1.75%
same,Amount of Degradation Products (%) After 4 Weeks,"[1]; in Propylene Glycol Monolaurate, Accelerated Condition (40° C., 75% RH)",None
same,Amount of Degradation Products (%) After 4 Weeks,"[1]; in Propylene Glycol Monolaurate, Accelerated Condition (40° C., 75% RH), listed as dutasteride",not generated
same,Amount of Degradation Products (%) After 4 Weeks,"[1]; in Propylene Glycol Monolaurate, Stress Condition (50° C., 95% RH)",0.32%
same,Stability of dutasteride in propylene glycol monolaurate compared to caprylic/capric acid mono-di-glyceride,"[1]; week 4, accelerated (40° C., 75% RH) and stress condition (50° C., 95% RH), in words",more superior
same,Solubility of Dutasteride,"[2]; in Propylene Glycol Dicaprylate, room temperature (25° C.), stirring for 24 hours",1130 µg/mL
same,solubility at 24 h,"[2]; in Propylene Glycol Dicaprate, room temperature (25° C.), stirring for 24 hours",770 µg/mL
same,solubility at 24 h,"[2]; in Propylene Glycol Monolaurate, room temperature (25° C.), stirring for 24 hours",10400 µg/mL
same,Solubility in propylene glycol monolaurate compared to other tested oils,[2]; propylene glycol monolaurate vs other tested (general) oils,≥ 10 times
same,Amount of Degradation Products (%) After 3 Weeks,[3]; [4],6.2%
same,Amount of Degradation Products (%) After 4 Weeks,[3]; [4],12.1%
same,Amount of Degradation Products (%) After 3 Weeks,[3]; [5],None
same,Amount of Degradation Products (%) After 4 Weeks,[3]; [5],None
